Read-outs that look alike come from different tables or passages of the source.
Test system: Raf-1^gof intestinal tumors
Settings: for Fold: Table 3 summary of hits, Screen ICCB, luciferase relative to DMSO, fed three consecutive days in vials
[1] = screen of 480 ICCB compounds in vials, compounds fed to flies with one-day old Raf-1^gof tumors, assessed three days later, esg-Gal4 luciferase
[2] = screen of 480 ICCB compounds in vials, compounds fed to flies with one-day old Raf-1^gof tumors, assessed three days later, esg-Gal4 luciferase, averaged from multiple wells
[3] = ICCB compounds fed in vials to flies with one-day old Raf-1^gof tumors, assessed three days later
[4] = ICCB compounds fed in vials to flies with one-day old Raf-1^gof tumors, assessed three days later, averaged from multiple wells
Throughout, for Fold (luciferase activity relative to DMSO controls): test concentration or dose not given here.
Throughout, for Fold (luciferase activity, fold difference relative to DMSO controls): test concentration or dose not given here.
Throughout, for Log2 (fold) (luciferase activity, log2 of the fold difference relative to DMSO controls): test concentration or dose not given here.
Throughout, for Log2 (fold) of luciferase activity relative to DMSO controls: test concentration or dose not given here.

COCCCCCCCCCCCC(=O)O [12-METHOXYDODECANOIC ACID]
Log2 (fold) (luciferase activity, log2 of the fold difference relative to DMSO controls) [1]: −0.320 | Fold (luciferase activity, fold difference relative to DMSO controls) [2]: 0.801

Cc1coc2c1C(=O)C(=O)c1c-2ccc2c1CCCC2(C)C [Tanshinone IIA]
Log2 (fold) (luciferase activity, log2 of the fold difference relative to DMSO controls) [1]: −0.570 | Fold (luciferase activity, fold difference relative to DMSO controls) [2]: 0.674

CCCCCCCCCCCCCCCCOCC(COP(=O)([O-])OCC[N+](C)(C)C)OC (stereo not drawn) [1-HEXADECYL-2-METHYLGLYCERO-3 PC]
Log2 (fold) of luciferase activity relative to DMSO controls [3]: 0.060 | Fold (luciferase activity relative to DMSO controls) [4]: 1.042 fold

Cc1[nH]c(=O)c(C#N)cc1-c1ccncc1 [Milrinone]
Log2 (fold) (luciferase activity, log2 of the fold difference relative to DMSO controls) [1]: −0.615 | Fold (luciferase activity, fold difference relative to DMSO controls) [2]: 0.653

CN1C(C(=O)Nc2ccccn2)=C(O)c2ccccc2S1(=O)=O [piroxicam]
Log2 (fold) of luciferase activity relative to DMSO controls [3]: 0.147 | Fold (luciferase activity relative to DMSO controls) [4]: 1.107 fold

O=C1NC(=O)C(c2ccccc2)(c2ccccc2)N1 [PHENYTOIN]
Log2 (fold) (luciferase activity, log2 of the fold difference relative to DMSO controls) [1]: −0.300 | Fold (luciferase activity, fold difference relative to DMSO controls) [2]: 0.812

O=C1Nc2ccccc2/C1=C1/Nc2ccccc2C1=O [Indirubin]
Log2 (fold) of luciferase activity relative to DMSO controls [3]: −0.103 | Fold (luciferase activity relative to DMSO controls) [4]: 0.931 fold

CCNC(=O)[C@H]1O[C@@H](n2cnc3c(N)ncnc32)[C@H](O)[C@@H]1O [5′-N-Ethylcarboxamidoadenosine (NECA)]
Log2 (fold) of luciferase activity relative to DMSO controls [3]: −0.024 | Fold (luciferase activity relative to DMSO controls) [4]: 0.983 fold

CC(C)C[C@@H](/C=C/S(C)(=O)=O)NC(=O)[C@H](CC(C)C)NC(=O)[C@H](CC(C)C)NC(=O)OCc1ccccc1 [ZL3VS]
Log2 (fold) (luciferase activity, log2 of the fold difference relative to DMSO controls) [1]: −0.513 | Fold (luciferase activity, fold difference relative to DMSO controls) [2]: 0.701

LY-83583
Log2 (fold) (luciferase activity, log2 of the fold difference relative to DMSO controls) [1]: −0.465 | Fold (luciferase activity, fold difference relative to DMSO controls) [2]: 0.725

C=C1O[C@@](CO)(n2cnc3c(N)ncnc32)[C@H](O)[C@@H]1O [decoyinine]
Log2 (fold) (luciferase activity, log2 of the fold difference relative to DMSO controls) [1]: −0.298 | Fold (luciferase activity, fold difference relative to DMSO controls) [2]: 0.813

C/C1=C/C(=O)O[C@@H]2C[C@@H](CC[C@H](C)/C=C\CC1)O[C@@](O)([C@@H]1CSC(=O)N1)C2 [Latrunculin B, reference compound]
Fold: 0.478 fold | Log2 (fold) (luciferase activity, log2 of the fold difference relative to DMSO controls) [1]: −1.064 | Fold (luciferase activity, fold difference relative to DMSO controls) [2]: 0.478

CCCCC[C@H](O)/C=C/C=C\CCCCCCCC(=O)O [13(S)-HODE]
Log2 (fold) of luciferase activity relative to DMSO controls [3]: −0.141 | Fold (luciferase activity relative to DMSO controls) [4]: 0.907 fold

CCCCCCCCCCCCCCCC(=O)OCC(COP(=O)(O)O)OC(=O)CCCCCCCCCCCCCCC (stereo not drawn) [PHOSPHATIDIC ACID, DIPALMITOYL]
Log2 (fold) (luciferase activity, log2 of the fold difference relative to DMSO controls) [1]: −0.288 | Fold (luciferase activity, fold difference relative to DMSO controls) [2]: 0.819

O=C1NCN(c2ccccc2)C12CCN(CCCC(c1ccc(F)cc1)c1ccc(F)cc1)CC2 [FLUSPIRILINE]
Log2 (fold) of luciferase activity relative to DMSO controls [3]: −0.192 | Fold (luciferase activity relative to DMSO controls) [4]: 0.875 fold

COc1cc2ncnc(Nc3cccc(Cl)c3)c2cc1OC [AG1478]
Log2 (fold) (luciferase activity, log2 of the fold difference relative to DMSO controls) [1]: −0.655 | Fold (luciferase activity, fold difference relative to DMSO controls) [2]: 0.635

BW-B 70C
Log2 (fold) of luciferase activity relative to DMSO controls [3]: 0.116 | Fold (luciferase activity relative to DMSO controls) [4]: 1.084 fold

O=C(/C=C/c1ccc(O)c(O)c1)OCCc1ccccc1 [CAPE]
Log2 (fold) (luciferase activity, log2 of the fold difference relative to DMSO controls) [1]: −0.324 | Fold (luciferase activity, fold difference relative to DMSO controls) [2]: 0.799

CC(C)[C@@H](O)CC[C@@H](C)[C@H]1CC[C@H]2[C@@H]3CC=C4C[C@@H](O)CC[C@]4(C)[C@H]3CC[C@]12C [24(S)-hydroxycholesterol]
Log2 (fold) (luciferase activity, log2 of the fold difference relative to DMSO controls) [1]: −0.244 | Fold (luciferase activity, fold difference relative to DMSO controls) [2]: 0.844

CCCCC(C)(C)C(O)C=CC1C(O)CC(=O)C1CC=CCCCC(=O)O (stereo not drawn) [16,16-DIMETHYL-PROSTAGLANDIN E2]
Log2 (fold) of luciferase activity relative to DMSO controls [3]: −0.013 | Fold (luciferase activity relative to DMSO controls) [4]: 0.991 fold

CC/C=C\C/C=C\C/C=C\CCCCCCCCCC(=O)O [EICOSATRIENOIC ACID (20:3 n-3)]
Log2 (fold) of luciferase activity relative to DMSO controls [3]: 0.198 | Fold (luciferase activity relative to DMSO controls) [4]: 1.147 fold

CCCCC/C=C\C[C@H](O)/C=C/C=C\C/C=C\CCCC(=O)O [12(S)-HETE]
Log2 (fold) of luciferase activity relative to DMSO controls [3]: 0.055 | Fold (luciferase activity relative to DMSO controls) [4]: 1.039 fold

CCCCCCCCCCCCCCCCOC[C@H](COP(=O)([O-])OCC[N+](C)(C)C)OC(=O)NC [C-PAF]
Log2 (fold) of luciferase activity relative to DMSO controls [3]: 0.119 | Fold (luciferase activity relative to DMSO controls) [4]: 1.086 fold

NC(=O)c1cccc(N)c1
Log2 (fold) of luciferase activity relative to DMSO controls [3]: −0.160 | Fold (luciferase activity relative to DMSO controls) [4]: 0.895 fold

N#C/C(=C\c1ccc(O)c(O)c1)C(N)=S [AG213 (Tyrphostin 47)]
Log2 (fold) (luciferase activity, log2 of the fold difference relative to DMSO controls) [1]: −0.625 | Fold (luciferase activity, fold difference relative to DMSO controls) [2]: 0.648

CC(N/C(=N\C#N)Nc1ccncc1)C(C)(C)C (stereo not drawn)
Log2 (fold) (luciferase activity, log2 of the fold difference relative to DMSO controls) [1]: −0.591 | Fold (luciferase activity, fold difference relative to DMSO controls) [2]: 0.664

N#CC(=Cc1ccc2[nH]ccc2c1)C(N)=C(C#N)C#N [AG-370]
Log2 (fold) (luciferase activity, log2 of the fold difference relative to DMSO controls) [1]: −0.559 | Fold (luciferase activity, fold difference relative to DMSO controls) [2]: 0.679

CC(COc1ccccc1)N(CCCl)Cc1ccccc1 (stereo not drawn) [Phenoxybenzamine]
Log2 (fold) (luciferase activity, log2 of the fold difference relative to DMSO controls) [1]: −0.600 | Fold (luciferase activity, fold difference relative to DMSO controls) [2]: 0.660

CO[C@H](C/C=C\C=C\CC/C=C/C[C@H](C)/C=C/C(=C\C(=O)O)CC(=O)O)/C(C)=C\C=C(/C)C(=O)O [bongkrekic acid]
Log2 (fold) of luciferase activity relative to DMSO controls [3]: −0.102 | Fold (luciferase activity relative to DMSO controls) [4]: 0.932 fold

C[C@@H]1C[C@@H]([C@H](O)CC2CC(=O)NC(=O)C2)C(=O)[C@@H](C)C1 [cycloheximide, reference compound]
Fold: 0.337 fold | Log2 (fold) (luciferase activity, log2 of the fold difference relative to DMSO controls) [1]: −1.568 | Fold (luciferase activity, fold difference relative to DMSO controls) [2]: 0.337

COc1cc2nc(N3CCN(C(=O)c4ccco4)CC3)nc(N)c2cc1OC [prazocin]
Log2 (fold) of luciferase activity relative to DMSO controls [3]: 0.011 | Fold (luciferase activity relative to DMSO controls) [4]: 1.008 fold

COc1ccc(CCN(C)CCCC(C#N)(c2ccc(OC)c(OC)c2)C(C)C)cc1OC (stereo not drawn)
Fold (luciferase activity, fold difference relative to DMSO controls) (in vivo): 0.838 | Log2 (fold) (luciferase activity, log2 of the fold difference relative to DMSO controls) (in vivo): −0.255

CCCCC[C@H](O)C/C=C1/C(=O)C=C[C@@H]1C/C=C\CCCC(=O)O [D12-PROSTAGLANDIN J2]
Fold (luciferase activity relative to DMSO controls) (in vivo): 0.988 fold | Log2 (fold) of luciferase activity relative to DMSO controls (in vivo): −0.017

N#C/C(=C\c1cc(Cl)cc(Cl)c1)c1cccnc1 [RG-14620]
Log2 (fold) (luciferase activity, log2 of the fold difference relative to DMSO controls) [1]: −0.483 | Fold (luciferase activity, fold difference relative to DMSO controls) [2]: 0.715

N#C/C(=C/c1ccc(O)c(O)c1)C(=O)NCc1ccccc1 [AG-490]
Log2 (fold) (luciferase activity, log2 of the fold difference relative to DMSO controls) [1]: −0.272 | Fold (luciferase activity, fold difference relative to DMSO controls) [2]: 0.828

— patent US20130096067A1, “DROSOPHILA TUMOR STEM CELL MODEL AND USES THEREOF” (priority 2011, published 2013)
